# pEC50, pIC50: −log10 of the molar value. Active and inactive are the calls of the source. No cut-off for these calls is given here.
# Tests used:
# [1] = biological target: T1, MAP kinase-activated protein kinase 2 (Homo sapiens, UniProt P49137); test: Inhibition of MK2 using TAMRA-labeled peptide as substrate pre-incubated for 30 mins prior substrate addition measured after 30 mins incubation in dark using fluorescence polarization assay
# Target sequence in this assay (P49137 whole entry): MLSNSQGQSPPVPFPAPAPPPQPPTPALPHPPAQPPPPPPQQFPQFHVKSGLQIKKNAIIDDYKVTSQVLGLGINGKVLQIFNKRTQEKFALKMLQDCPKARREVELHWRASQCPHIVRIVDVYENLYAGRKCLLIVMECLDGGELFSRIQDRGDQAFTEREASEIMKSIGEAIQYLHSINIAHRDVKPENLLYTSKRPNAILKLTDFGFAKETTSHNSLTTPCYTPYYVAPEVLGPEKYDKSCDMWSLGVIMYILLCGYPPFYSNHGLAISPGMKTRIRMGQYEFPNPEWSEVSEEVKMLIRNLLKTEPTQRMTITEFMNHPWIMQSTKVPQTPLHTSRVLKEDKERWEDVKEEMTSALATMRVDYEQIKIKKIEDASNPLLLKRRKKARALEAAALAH
# [2] = Kinetic solubility of the compound at pH 7.4; details: buffer
# [3] = biological target: T1, MAP kinase-activated protein kinase 2; test: Inhibition of MK2-mediated HSP27 phosphorylation at Ser78 in LPS-stimulated human THP-1 cells pre-incubated for 60 mins before LPS treatment measured after 60 mins; type: cell-based
# Target sequence in this assay (P49137 whole entry): as above
# [4] = biological target: T1, MAP kinase-activated protein kinase 2; test: Noncompetitive inhibition of MK2 using TAMRA-labeled peptide as substrate
# Target sequence in this assay (P49137 whole entry, looked up): as the sequence (P49137 whole entry) above
SMILES,pIC50 [1],solubility kinetic [2] [µM],pEC50 [3],inhibition [4]
Cc1nnc2n1-c1ccc(N3CCNCC3)cc1Cc1cc(-c3ccc(Cl)cc3)oc1-2,6.06,10,,
O=C(c1ccc(-c2ccc(Cl)cc2)o1)N(Cc1ccccn1)c1ccc(N2CCNCC2)cc1,,> 200,,
Clc1ccc(-c2cc3c(o2)-c2nccn2-c2ccc(N4CCNCC4)cc2OC3)cc1,7.74,38,,Active
O=C1Nc2ccc(N3CCNCC3)cc2OCc2cc(-c3ccc(Cl)cc3)oc21,6.96,,,

# Further molecules by rising pIC50 [1], results first:
pIC50 [1],solubility kinetic [2] [µM],pEC50 [3],inhibition [4],SMILES
7.82,33,,,Fc1ccc(-c2cc3c(o2)-c2nncn2-c2ccc(N4CCNCC4)cc2C3)cc1
8.03,10,5.68,,Clc1ccc(-c2cc3c(o2)-c2nncn2-c2ccc(N4CCNCC4)cc2C3)cc1
8.04,,5.60,,Cc1cnc2n1-c1ccc(N3CCNCC3)cc1Cc1cc(-c3ccc(Cl)cc3)oc1-2
8.15,20,5.82,,Clc1ccc(-c2cc3c(o2)-c2nccn2-c2ccc(N4CCNCC4)cc2C3)cc1
8.42,16,6.59,Active,N#Cc1ccc(-c2cc3c(o2)-c2nncn2-c2ccc(N4CCNCC4)cc2C3)cc1
8.54,< 16,6.59,,N#Cc1ccc(-c2cc3c(o2)-c2nccn2-c2ccc(N4CCNCC4)cc2C3)cc1
